Assay results taken from patent US9447069B2, “ROR modulators and their uses” (INNOV17 LLC, priority 2012, dated 2016).
Read-outs that look alike come from different tables or passages of the source.

What was measured:
FOXP3 = assay: Real-Time qRT-PCR gene expression in TH17 cells (FOXP3); type: cell-based, human; design: key: A: No change in gene expression observed relative to DMSO treated Th17 cells; B: Decreased gene expression observed relative to DMSO treated Th17 cells; C: Increased gene expression observed relative to DMSO treated Th17 cells; details: normalized to six reference genes
Protocol: (§1) Peripheral blood mononuclear cells (PBMCs) were sourced from freshly prepared leukocyte enriched plasma (buffy coat) from healthy volunteers from which PBMCs were isolated by density gradient centrifugation using Ficoll-Paque™ PLUS (GE Healthcare). Naïve CD4+ T cells were isolated using the Naïve CD4+ T cell Isolation Kit II (Miltenyi Biotec) as per manufacturer's instructions. CD4+ T cells were plated at 5×10^4 cells/well in 96 well plates pre-coated with immobilized human (h)-αCD3 antibody (eBioscience) then differentiated to TH17 cells using h-αCD28, h-αIFN-γ, h-αIL-4, h-IL-6, h-IL-23, h-IL-1β, h-TGF-β1 (eBioscience) and maintained in a cell culture incubator at 37° C. with 5% CO2 in TexMACS Medium (Miltenyi Biotec) supplemented with 1% Penicillin/Streptomycin (Lonza) over 5 days.
(§2) RNA was isolated from TH17 cells and cDNA was synthesized using the Verso cDNA kit (Thermo Scientific) as per manufacturer's instructions. IL-17A, IL-17F, IL-21, IL-22, G-CSF, IL-23R and FOXP3 gene expression were determined for compound treated and untreated TH17 cell samples using Solaris qPCR Gene expression assays (Thermo Scientific) with an iCycler iQ Real-Time PCR Detection System (Bio-Rad). Individual gene expression was normalized to a panel of six reference genes (ACTB, TBP, HPRT1, PGK1, TFRC and PPIA) (Thermo Scientific) and analyzed by REST 2009 (Qiagen) in accordance to MIQE guidelines (Bustin et al. (2009) Clin. Chem, 55:611-622). The effects of compounds on TH17 cytokine gene expression are presented as fold change in mRNA levels of compound treated TH17 cells relative to DMSO treated cells in the table below.

RORα LBD = biological target: T1, RORα LBD (Homo sapiens, UniProt P35398); assay: TR-FRET NCoR1-D2 co-repressor recruitment to RORα LBD; type: biochemical
T1 construct: purified GST-tagged (i) RORγ LBD or (ii) RORα LBD; purchased Life Technologies
T1 sequence (P35398 272-510 limits assumed): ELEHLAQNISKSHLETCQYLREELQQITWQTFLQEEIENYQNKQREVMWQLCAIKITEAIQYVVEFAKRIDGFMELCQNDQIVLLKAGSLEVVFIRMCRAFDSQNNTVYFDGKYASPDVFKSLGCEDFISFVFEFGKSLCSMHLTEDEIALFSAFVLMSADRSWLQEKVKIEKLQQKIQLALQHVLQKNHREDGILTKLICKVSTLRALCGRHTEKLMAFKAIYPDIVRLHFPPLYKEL
Source text: The Time-Resolved Fluorescence Resonance Energy Transfer (TR-FRET) assay kit (Life Technologies) was used to measure compound efficacy to disrupt or enhance ligand-mediated interaction of the co-activator and co-repressor peptides with the purified GST-tagged (i) RORγ LBD or (ii) RORα LBD. The RORγ LBD and RORα LBD each have a basal level of interaction with the co-activator D22 or co-repressor NCoR1-D2 in the absence of ligand, thus it is possible to identify compounds that inhibit or induce RORγ and/or RORα co-activator/co-repressor interactions, thus determining RORα, RORγ, or RORα/RORγ compound selectivity. The assay was performed as per manufacturer's instructions and TR-FRET was assessed 2 and 20 hours post-assay initiation. Compounds were identified to (i) have no impact on either co-activator displacement or […] from the assessed LBD (ii) promote co-activator displacement from the assessed LBD (iii) promote co-repressor recruitment to the assessed LBD or (iv) concurrently promote co-activator displacement from the assessed LBD and co-repressor recruitment to the assessed LBD.

RORγ LBD = biological target: T2, RORγ LBD (Homo sapiens, UniProt P51449); assay: RORγ LBD binding (Human RORγ Assay System, INDIGO Biosciences); design: purchased INDIGO Biosciences Inc; details: 0.5% DMSO
T2 sequence (P51449 269-508 limits assumed): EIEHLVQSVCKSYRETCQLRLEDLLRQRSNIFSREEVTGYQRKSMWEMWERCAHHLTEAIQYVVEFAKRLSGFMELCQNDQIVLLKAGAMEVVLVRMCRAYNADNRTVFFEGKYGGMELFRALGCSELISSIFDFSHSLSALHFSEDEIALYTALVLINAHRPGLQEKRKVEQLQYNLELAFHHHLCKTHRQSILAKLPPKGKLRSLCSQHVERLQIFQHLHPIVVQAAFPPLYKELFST
Protocol: Compound binding to the human RORγ LBD was assessed using the Human RORγ Assay System (INDIGO Biosciences Inc.) as per manufacturer's instructions.

IL-17A = assay: TH17 cytokine inhibition measured by ELISA (IL-17A); type: cell-based; details: 120 h; human TH17 cells, 5 days differentiation, ELISA of supernatants, 0.1% DMSO
Protocol: as §1
(§3) Human CD4+ T cells were differentiated to TH17 cells as described in the presence or absence of various concentrations of compounds in a final concentration of 0.1% DMSO in TexMACS medium. Supernatants were collected and stored at −20° C. until they were to be assayed for IL-17A, IL-17F, IL-17AF, IL-21 and/or IL-22 levels as determined by Ready-Set-Go ELISA kits (eBioscience) as per manufacturer's instructions. Endpoint absorbance was read at 450 nm and 570 nm according to manufacturer's instructions (eBioscience) using a microplate reader (Perkin Elmer). The percentage of cytokine inhibition was calculated with reference to DMSO treated cells and the IC50s were determined by GraphPad Prism software and presented in the table below.

TH17 cells = assay: TH17 cellular proliferation (Prestoblue); type: cell-based; details: Homo sapiens, 120 h; 3 μM compound, after 5 day TH17 differentiation, relative to DMSO treated TH17 cells; read-out: % change in TH17 cell number
Protocol: as §1
Cellular proliferation was assessed in the presence or absence of 3 μM compound using Prestoblue® Cell Viability Reagent (Life Technologies) as per manufacturer's instructions using absorbance as the output measured by a microplate reader (Perkin Elmer) after 30 minutes of incubation. A standard curve developed by plotting varying cell numbers versus absorbance was used to assess differences in cellular proliferation between compound treated or untreated cells after the 5 day TH17 differentiation period.

IL-17F = assay: TH17 cytokine inhibition measured by ELISA (IL-17F); type: cell-based; details: 120 h; human TH17 cells, 5 days differentiation, ELISA of supernatants, 0.1% DMSO
Protocol: as §1, §3

IL-21 = assay: Real-Time qRT-PCR gene expression in TH17 cells (IL-21); type: cell-based, human; design: key: A: No change in gene expression observed relative to DMSO treated Th17 cells; B: Decreased gene expression observed relative to DMSO treated Th17 cells; C: Increased gene expression observed relative to DMSO treated Th17 cells; details: normalized to six reference genes
Protocol: as §1, §2

[1] = TR-FRET assessed 2 hr post-assay initiation, read-out: RORα EC50 NCoR1-D2 co-repressor recruitment, 2 hr
[2] = TR-FRET assessed 20 hr post-assay initiation, read-out: RORα EC50 NCoR1-D2 co-repressor recruitment, 20 hr

Compound	EC50 (RORα LBD; [1])	EC50 (RORα LBD; [2])	IC50 (RORγ LBD)	IC50 (IL-17A)	IC50 (IL-17F)	Fold change in mRNA levels of compound treated TH17 cells relative to DMSO treated cells, FOXP3 (FOXP3)	inhibition at 3 µM (TH17 cells)	Fold change in mRNA levels of compound treated TH17 cells relative to DMSO treated cells, IL-21 (IL-21)
Cc1n[nH]c(-c2ccc3c(c2)CCC(=O)N3Cc2ccc(C(O)(C(F)(F)F)C(F)(F)F)cc2)n1 [Example 6, 1-(4-(1,1,1,3,3,3-hexafluoro-2-hydroxypropan-2-yl)benzyl)-6-(3-methyl-1H-1,2,4-triazol-5-yl)-3,4-dihydroquinolin-2(1H)-one]	> 30 µM	> 30 µM	> 10 µM	< 10 µM	> 10 µM	C	≤ 50%	A
Cc1cc(-c2ccc3c(c2)CCC(=O)N3Cc2ccc(C(O)(C(F)(F)F)C(F)(F)F)cc2)[nH]n1 [Example 4, 1-(4-(1,1,1,3,3,3-hexafluoro-2-hydroxypropan-2-yl)benzyl)-6-(3-methyl-1H-pyrazol-5-yl)-3,4-dihydroquinolin-2(1H)-one]	> 30 µM	< 30 µM	< 10 µM	< 10 µM	< 10 µM	A	≤ 50%	B
O=C1CCc2cc(-c3cn[nH]c3)ccc2N1Cc1ccc(C(O)(C(F)(F)F)C(F)(F)F)cc1 [Example 5, 1-(4-(1,1,1,3,3,3-hexafluoro-2-hydroxypropan-2-yl)benzyl)-6-(1H-pyrazol-4-yl)-3,4-dihydroquinolin-2(1H)-one]	< 30 µM	> 30 µM	> 10 µM	< 10 µM	< 10 µM	A	≤ 50%	A
OC(c1ccc(CN2CCCc3cc(-c4cn[nH]c4)ccc32)cc1)(C(F)(F)F)C(F)(F)F [Example 2, 2-(4-((6-(1H-pyrazol-4-yl)-3,4-dihydroquinolin-1(2H)-yl)methyl)phenyl)-1,1,1,3,3,3-hexafluoropropan-2-ol]	< 30 µM	< 30 µM	> 10 µM	< 10 µM	< 10 µM	C	> 50%	B

Second part, led by results:

EC50 (RORα LBD; [1])	EC50 (RORα LBD; [2])	IC50 (RORγ LBD)	IC50 (IL-17A)	IC50 (IL-17F)	Compound	Fold change in mRNA levels of compound treated TH17 cells relative to DMSO treated cells, FOXP3 (FOXP3)	inhibition at 3 µM (TH17 cells)	Fold change in mRNA levels of compound treated TH17 cells relative to DMSO treated cells, IL-21 (IL-21)
> 30 µM	< 30 µM	> 10 µM	< 10 µM	< 10 µM	Cc1n[nH]c(-c2ccc3c(c2)CCCN3Cc2ccc(C(O)(C(F)(F)F)C(F)(F)F)cc2)n1 [Example 3, 1,1,1,3,3,3-hexafluoro-2-(4-((6-(3-methyl-1H-1,2,4-triazol-5-yl)-3,4-dihydroquinolin-1(2H)-yl)methyl)phenyl)propan-2-ol]	A	> 50%	B
< 30 µM	< 30 µM	> 10 µM	< 10 µM	< 10 µM	Cc1cc(-c2ccc3c(c2)CCCN3Cc2ccc(C(O)(C(F)(F)F)C(F)(F)F)cc2)[nH]n1 [Example 1, 1,1,1,3,3,3-hexafluoro-2-(4-((6-(3-methyl-1H-pyrazol-5-yl)-3,4-dihydroquinolin-1(2H)-yl)methyl)phenyl)propan-2-ol]	C	> 50%	B
